Assay results from US20250154173A1 (Merck Sharp & Dohme LLC, priority 2023, published 2025).

Target: T1, GST-RIPK1 (recombinant GST-RIPK1 kinase domain (residues 1-327)) (Homo sapiens, UniProt Q13546)
T1 construct: recombinant GST-RIPK1 kinase domain (residues 1-327) enzyme produced from baculovirus-transfected Sf21 cells; host or cells: baculovirus-transfected Sf21 insect cells
T1 sequence (Q13546 1-327): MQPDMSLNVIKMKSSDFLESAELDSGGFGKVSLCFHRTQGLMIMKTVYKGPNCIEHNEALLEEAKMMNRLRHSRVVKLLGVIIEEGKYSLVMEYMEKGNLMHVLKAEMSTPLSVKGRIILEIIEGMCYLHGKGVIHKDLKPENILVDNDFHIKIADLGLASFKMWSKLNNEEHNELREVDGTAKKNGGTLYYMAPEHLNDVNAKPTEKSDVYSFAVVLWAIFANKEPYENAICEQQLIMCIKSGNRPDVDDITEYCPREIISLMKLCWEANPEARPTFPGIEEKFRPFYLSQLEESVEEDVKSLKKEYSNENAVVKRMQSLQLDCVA
Assay: RIPK1-ADP-Glo Enzymatic Assay
Format: biochemical
Conditions: ten-point titration, top compound concentration of 100000 nM; 25 nM GST-RIPK1, 300 μM ATP, 3 μM dephosphorylated-MBP; 30 min pre-incubation, 150 min reaction
Protocol: RIPK1-ADP-Glo Enzymatic Assay
The enzymatic activity of RIPK1 is measured using an assay derived from ADP-Glo kit (TMPromega), which provides a luminescent-based ADP detection system. Specifically, the ADP generated by RIPK1 kinase is proportionally detected as luminescent signals in a homogenous fashion. In this context, the assessment of the inhibitory effect of small molecules (EC50) is measured by the effectiveness of the compounds to inhibit the ATP to ADP conversion by RIPK1.
In this assay, the potency (EC50) of each compound was determined from a ten-point (1:3 serial dilution; top compound concentration of 100000 nM) titration curve using the following outlined procedure. To each well of a white ProxiPlus 384 well-plate, 30 nL of compound (1% DMSO in final assay volume of 3 μL) was dispensed, followed by the addition of 2 μL of 1× assay buffer (25 mM Hepes 7.3, 20 mM MgCl2, 50 mM NaCl, 1 mM DTT, 0.005% Tween20, and 0.02% BSA) containing 37.5 nM of GST-RIPK1 (recombinant GST-RIPK1 kinase domain (residues 1-327) enzyme produced from baculovirus-transfected Sf21 cells: MW=62 kDa). Plates were placed in an ambient temperature humidified chamber for a 30 minutes pre-incubation with compound. Subsequently, each reaction was initiated by the addition of 1 μL 1× assay buffer containing 900 μM ATP and 3 μM dephosphorylated-MBP substrate. The final reaction in each well of 3 μL consists of 25 nM of GST-RIPK1, 300 μM ATP, and 3 μM dephosphorylated-MBP. Kinase reactions were allowed to proceed for 150 minutes prior to adding ADP-Glo reagents per Promega's outlined kit protocol. Dose-response curves were generated by plotting percent effect (% product conversion; Y-axis) vs. Log 10 compound concentrations (X-axis). EC50 values were calculated using a non-linear regression, four-parameters sigmoidal dose-response model.

Compound | EC50
CC(OC1CC2(C1)OC1CCC(c3cc(F)cc(F)c3)N1C2=O)c1ccccc1 (single isomer, unassigned) [Example 15.2, ((1R or S),3R,5′S,7a′R)-5′-(3,5-difluorophenyl)-3-((S or R)-1-phenylethoxy)tetrahydro-3′H-spiro[cyclobutane-1,2′-pyrrolo[2,1-b]oxazol]-3′-one] | 0.07 µM
CC(OC1CC2(C1)OC1CCC(c3cc(F)cc(F)c3)N1C2=O)c1ccccc1 (single isomer, unassigned) [Example 15.3, ((1S or R),3R,5′S,7a′R)-5′-(3,5-difluorophenyl)-3-((R or S)-1-phenylethoxy)tetrahydro-3′H-spiro[cyclobutane-1,2′-pyrrolo[2,1-b]oxazol]-3′-one] | 0.026 µM
CC(OC1CC2(C1)OC1CCC(c3cc(F)cc(F)c3)N1C2=O)c1ccccc1 (single isomer, unassigned) [Example 15.4, ((1R or S),3R,5′S,7a′R)-5′-(3,5-difluorophenyl)-3-((R or S)-1-phenylethoxy)tetrahydro-3′H-spiro[cyclobutane-1,2′-pyrrolo[2,1-b]oxazol]-3′-one] | 0.019 µM
O=C1N2[C@@H](CC[C@H]2c2ccc(F)cn2)O[C@]12C[C@@H](OCc1ccccc1)C2 [Example 3.1, (1s,3R,5′S,7a′R)-3-(benzyloxy)-5′-(5-fluoropyridin-2-yl)tetrahydro-3′H-spiro[cyclobutane-1,2′-pyrrolo[2,1-b]oxazol]-3′-one] | 0.108 µM
O=C1N2[C@@H](CC[C@H]2c2cnccn2)O[C@]12C[C@H](OCc1ccccc1)C2 [Example 4.1, ((1r),3R,5′S,7a′R)-3-(benzyloxy)-5′-(pyrazin-2-yl)tetrahydro-3′H-spiro[cyclobutane-1,2′-pyrrolo[2,1-b]oxazol]-3′-one] | 0.049 µM
O=C1N2[C@@H](CC[C@H]2c2cnccn2)OC12CC(OCc1ccccc1)C2 (stereo partly drawn) [Example 4.2, ((1s),3R,5′S,7a′R)-3-(benzyloxy)-5′-(pyrazin-2-yl)tetrahydro-3′H-spiro[cyclobutane-1,2′-pyrrolo[2,1-b]oxazol]-3′-one] | 0.024 µM
CC1(Oc2cc(C#N)ncn2)CC2(C1)O[C@@H]1CC[C@@H](c3cc(F)cc(F)c3)N1C2=O (stereo partly drawn) [Example 5.1, 6-(((5′S,7a′R)-5′-(3,5-difluorophenyl)-3-methyl-3′-oxotetrahydro-3′H-spiro[cyclobutane-1,2′-pyrrolo[2,1-b]oxazol]-3-yl)oxy)pyrimidine-4-carbonitrile] | 0.057 µM
CC1(Oc2cc(C(N)=O)ncn2)CC2(C1)O[C@@H]1CC[C@@H](c3cc(F)cc(F)c3)N1C2=O (stereo partly drawn) [Example 5.2, 6-(((5′S,7a′R)-5′-(3,5-difluorophenyl)-3-methyl-3′-oxotetrahydro-3′H-spiro[cyclobutane-1,2′-pyrrolo[2,1-b]oxazol]-3-yl)oxy)pyrimidine-4-carboxamide] | 0.121 µM
O=C1N2[C@@H](CC[C@H]2c2cnccn2)O[C@]12C[C@H](Oc1ccc(F)cc1F)C2 [Example 7.1, (1r,3R,5′S,7a′R)-3-(2,4-difluorophenoxy)-5′-(pyrazin-2-yl)tetrahydro-3′H-spiro[cyclobutane-1,2′-pyrrolo[2,1-b]oxazol]-3′-one] | 0.02 µM
O=C1N2[C@@H](CC[C@H]2c2cnccn2)O[C@]12C[C@@H](Oc1ccc(F)cc1F)C2 [Example 7.2, (1s,3S,5′S,7a′R)-3-(2,4-difluorophenoxy)-5′-(pyrazin-2-yl)tetrahydro-3′H-spiro[cyclobutane-1,2′-pyrrolo[2,1-b]oxazol]-3′-one] | 0.018 µM

Other lines, results leading:

EC50 | Compound
0.03 µM | O=C1N2[C@@H](CC[C@H]2c2cc(F)cc(F)c2)OC12CC(Oc1ccccc1)C2 (single isomer, unassigned) [Example 16.1, ((1s or r),3R,5′S,7a′R)-5′-(3,5-difluorophenyl)-3-phenoxytetrahydro-3′H-spiro[cyclobutane-1,2′-pyrrolo[2,1-b]oxazol]-3′-one]
0.029 µM | O=C1N2[C@@H](CC[C@H]2c2cc(F)cc(F)c2)OC12CC(Oc1ccccc1)C2 (single isomer, unassigned) [Example 16.2, ((1r or s),3R,5′S,7a′R)-5′-(3,5-difluorophenyl)-3-phenoxytetrahydro-3′H-spiro[cyclobutane-1,2′-pyrrolo[2,1-b]oxazol]-3′-one]
0.062 µM | O=C1N2[C@@H](CC[C@H]2c2cncc(F)c2)OC12CCC(Oc1ccccc1)CC2 (single isomer, unassigned) [Example 16.3, (1r or s),(5′S,7a′R)-5′-(5-fluoropyridin-3-yl)-4-phenoxytetrahydro-3′H-spiro[cyclohexane-1,2′-pyrrolo[2,1-b]oxazol]-3′-one]
0.476 µM | O=C1N2[C@@H](CC[C@H]2c2cncc(F)c2)OC12CCC(Oc1ccccc1)CC2 (single isomer, unassigned) [Example 16.4, (1s or r), (5′S,7a′R)-5′-(5-fluoropyridin-3-yl)-4-phenoxytetrahydro-3′H-spiro[cyclohexane-1,2′-pyrrolo[2,1-b]oxazol]-3′-one]
0.086 µM | N#Cc1cc(OC2CC3(C2)O[C@@H]2CC[C@@H](c4cc(F)cc(F)c4)N2C3=O)ncc1F (single isomer, unassigned) [Example 17.1, 2-((((Is or r),3S,5′S,7a′R)-5′-(3,5-difluorophenyl)-3′-oxotetrahydro-3′H-spiro[cyclobutane-1,2′-pyrrolo[2,1-b]oxazol]-3-yl)oxy)-5-fluoroisonicotinonitrile]
0.227 µM | N#Cc1cc(OC2CC3(C2)O[C@@H]2CC[C@@H](c4cc(F)cc(F)c4)N2C3=O)ncc1F (single isomer, unassigned) [Example 17.2, 2-((((1r or s),3S,5′S,7a′R)-5′-(3,5-difluorophenyl)-3′-oxotetrahydro-3′H-spiro[cyclobutane-1,2′-pyrrolo[2,1-b]oxazol]-3-yl)oxy)-5-fluoroisonicotinonitrile]
0.027 µM | N#Cc1ccc(COC2CC3(C2)O[C@@H]2CC[C@@H](c4cnccn4)N2C3=O)cc1 (single isomer, unassigned) [Example 22.2, 4-((((5′S,7a′R)-3′-oxo-5′-(pyrazin-2-yl)tetrahydro-3′H-spiro[cyclobutane-1,2′-pyrrolo[2,1-b]oxazol]-3-yl)oxy)methyl)benzonitrile]
0.015 µM | O=C1N2[C@@H](CC[C@H]2c2cnccn2)OC12CC(OCc1cccc(F)c1)C2 (single isomer, unassigned) [Example 22.5]
0.029 µM | N#Cc1ccc(COC2CC3(C2)O[C@@H]2CC[C@@H](c4cnccn4)N2C3=O)cc1 (single isomer, unassigned) [Example 22.7, 4-({[(5′S,7a′R)-3′-oxo-5′-(pyrazin-2-yl)tetrahydro-3′H-spiro[cyclobutane-1,2′-pyrrolo[2,1-b][1,3]oxazol]-3-yl]oxy}methyl)benzonitrile]
0.035 µM | O=C1N2[C@@H](CC[C@H]2c2cnccn2)OC12CC(OCc1cccc(F)c1)C2 (single isomer, unassigned) [Example 22.8]
0.46 µM | O=C1N2[C@@H](CC[C@H]2c2cnccn2)OC12CC(OCC1CCC1)C2 (single isomer, unassigned) [Example 23.1, (5′S,7a′R)-3-(cyclobutylmethoxy)-5′-(pyrazin-2-yl)tetrahydro-3′H-spiro[cyclobutane-1,2′-pyrrolo[2,1-b]oxazol]-3′-one]
0.577 µM | O=C1N2[C@@H](CC[C@H]2c2cnccn2)OC12CC(OCC1CCC1)C2 (single isomer, unassigned) [Example 23.2, (5′S,7a′R)-3-(cyclobutylmethoxy)-5′-(pyrazin-2-yl)tetrahydro-3′H-spiro[cyclobutane-1,2′-pyrrolo[2,1-b]oxazol]-3′-one]
0.316 µM | O=C1N2[C@@H](CC[C@H]2c2cnccn2)OC12CC(OCC1CCCC1)C2 (single isomer, unassigned) [Example 23.3, (5′S,7a′R)-3-(cyclopentylmethoxy)-5′-(pyrazin-2-yl)tetrahydro-3′H-spiro[cyclobutane-1,2′-pyrrolo[2,1-b]oxazol]-3′-one]
0.649 µM | O=C1N2[C@@H](CC[C@H]2c2cnccn2)OC12CC(OCC1CCCC1)C2 (single isomer, unassigned) [Example 23.4, (5′S,7a′R)-3-(cyclopentylmethoxy)-5′-(pyrazin-2-yl)tetrahydro-3′H-spiro[cyclobutane-1,2′-pyrrolo[2,1-b]oxazol]-3′-one]
